Experiment [1] deals with Pseudomonas aeruginosa 23587. Nature of the experiment: Antibiotic diffusion assay, levofloxacin plate versus water control plate. To be noted: zone of inhibition in levofloxacin (5 mcg/ml) plate minus water control plate; Mueller Hinton Agar, 35° C. 20 hours. It counts as cell-based. How it is done:
(§1) Testing method for Inhibition of the Efflux Pumps of Pseudomonas aeruzinosa 23587, E. coli 2051, Streptococcus pneumoniae 3514 and Streptococcus pyozenus 26-00
Antibiotic Diffusion Assay
The activity of efflux pump inhibitor was also assessed using an antibiotic diffusion assay. For this assay Pseudomonas aeruginosa 23587 is used. Pseudomonas aeruginosa 23587 is a clinical isolate containing multiple efflux pumps which can be mexAB, mexCD, mexEF but not limited to mex classification only. Pseudomonas aeruginosa are grown in tryptic soya broth for 20 hours at 35° C. Two antibiotic assay plates are prepared in Mueller Hinton Agar using above inoculum. The bacterial count in a plate is 1×10^6 cells/ml. In one of the plates, levofloxacin is incorporated at 5 mcg/ml, while in the control plate an equivalent amount of water is added. […]. The plates are incubated at 35° C. for 20 hours and the zone of inhibition was recorded in mm (table 2). The difference in the diameter of zone of inhibition was calculated by subtracting from the diameter of the zone of inhibition in the levofloxacin containing plate the diameter of the zone of inhibition in the water containing control plate. Example, if the diameter of the zone of inhibition in the levofloxacin plate is X mm and the diameter of the zone of inhibition in the control plate is Y mm, the difference Z=X−Y and is a measure of the activity of the efflux pump inhibitor.

A further experiment relates to E. coli 2051. The description is as above. Format: cell-based, Escherichia coli. To be noted: zone of inhibition in levofloxacin (15 mcg/ml) plate minus water control plate; Mueller Hinton Agar, 35° C. 20 hours. How it is done:
as §1
The activity of an efflux pump inhibitor of E. coli 2051 was also assessed using an antibiotic diffusion assay. For this assay E. coli 2051 is used. E. coli 2051 is a clinical isolate containing multiple efflux pumps. E. coli 2051 are grown in tryptic soya broth for 20 hours at 35° C. Two antibiotic assay plates are prepared in Mueller Hinton Agar using above inoculum. The bacterial count in a plate is 1×10^6 cells/ml. In one of the plates, levofloxacin is incorporated at 15 mcg/ml, while in the control plate an equivalent amount of water is added. […]. The plates are incubated at 35° C. for 20 hours and the zone of inhibition was recorded in mm (table 3) . The difference in the diameter of zone of inhibition was calculated by subtracting from the zone of inhibition in the levofloxacin containing plate the diameter of the zone of inhibition in the control plate.

The subject of experiment [2] is Staphylococcus aureus 1199 B NorA+. Format: cell-based. To be noted: combination with ciprofloxacin, broth microdilution checkerboard, 35° C. 20 hours; FIC index ≦0.5 synergistic, 0.5–2.0 additive, >2.0 antagonistic. The essentials:
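Broth microdilution checkerboard with ciprofloxacin against S. aureus 1199B NorA+, pump inhibitor titrated along one axis; inoculum 5×10^5 CFU/ml in Mueller Hinton broth, 35 °C for 20 hours. Growth read by visible turbidity, confirmed by plate reader; FIC index derived from inhibitor MIC in combination versus alone.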

Experiment [3] has as its system Mef Efflux Pump of Streptococcus pneumoniae 3514 and Streptococcus pyogenes 26-00. Put plainly: Two plate diffusion assay for macrolide (Mef) efflux pump inhibitors, azithromycin plate versus control plate. It counts as cell-based. To be noted: zone of inhibition in antibiotic plate (method: azithromycin 0.5 mcg/ml; footnote: levofloxacin) minus water control plate; strain not given.

For `C[C@H]1CCc2c(N3CCC(O)CC3)c(F)cc3c(=O)c(C(=O)[O-])cn1c23.C[N+](C)(C)CCO` [Example 22 (P. aeruginosa), S-(−)-9-Fluoro-6,7-dihydro-8-(4′-hydroxypiperidin-1-yl)-5-methyl-1-oxo-1H,5H-benzo[i,j]quinolizine-2-carboxylic acid, choline salt], the “Difference in Zone diameter Z1 (mm)” value in experiment [1] stood at 3 mm; in the experiment with E. coli 2051, 9 mm.

For the compound `Cc1c(F)c(Br)cc2c1c(=O)c(C(=O)O)cn2C1CC1` [Example 2 (P. aeruginosa), 7-Bromo-1-cyclopropyl-6-fluoro-5-methyl-1l 4-dihydro-4-oxo-quinoline-3-carboxylic acid], the “Difference in Zone diameter Z1 (mm)” value in experiment [1] was 1 mm; in the experiment with E. coli 2051 it was 9 mm.

With “S-(-9-Fluoro-6,7-dihydro-8-(4′-hydroxypiperidin-1-yl)-5-methyl-1-oxo-1H,5H-benzo[i,j]quinolizine-2-carboxylic acid, 1-hydroxyethylpyrrolidine salt [Example 23 (P. aeruginosa)]”, the “Difference in Zone diameter Z1 (mm)” value is listed as 3 mm in experiment [1] and 11 mm in the experiment on E. coli 2051.

On to `COc1c(N2CCC(N)C(C)(C)C2)c(F)cc2c(=O)c(C(=O)O)cn(C3CC3)c12` (centres unmarked) [Example 6 (P. aeruginosa), 1-Cyclopropyl-6-fluoro-8-methoxy-1,4-dihydro-7-(4′-amino-3′-3′-dimethylpiperidin-1-yl)-4-oxo-quinoline-3-carboxylic acid], for which the entries for the “Difference in Zone diameter Z1 (mm)” value (in experiment [1]; in the experiment with E. coli 2051) were 12 mm and 11 mm, respectively.

With `CC(C)C[C@@H](N)C(=O)OC1CCN(c2c(F)cc3c(=O)c(C(=O)O)cn4c3c2CC[C@@H]4C)CC1.Cl` [Example 29 (P. aeruginosa), (S)-(−)-9-Fluoro-6,7-dihydro-8-{4′-(D-leucyloxy)piperidin-1-yl}-5-methyl-1-oxo-1H,5H-benzo[i,j]quinolizine-2-carboxylic acid hydrochloride], the “Difference in Zone diameter Z1 (mm)” value stood at 12 mm in experiment [1] and 18 mm with E. coli 2051.

Regarding “(S)-(−)-Morpholinoethyl-9-fluoro-6,7-dihydro-8-(4′-hydroxypiperidin-1-yl)-5-methyl-1-oxo-1H,5H-benzo[i,j]quinolizine-2-carboxylic acid [Example 58 (NorA)]”, the “Difference in Zone diameter Z1 (mm)” value is given as 2 mm in experiment [1] and 8 mm in the experiment on E. coli 2051. Besides, in experiment [2], the “FIC INDEX” value is reported as 0.370.

In the case of `C[C@H]1CCc2c(N3CCC(O)CC3)c(F)cc3c(=O)c(C(=O)O)cn1c23.OCCNCCO` [Example 24 (P. aeruginosa), S-(−)-9-Fluoro-6,7-dihydro-8-(4′-hydroxypiperidin-1-yl)-5-methyl-1-oxo-1H,5H-benzo[i,j]quinolizine-2-carboxylic acid, diethanolamine salt], the “Difference in Zone diameter Z1 (mm)” value in experiment [1] worked out at 4 mm; with E. coli 2051 it was 11 mm.

As to “(R)-(+)-9,8-fluoro-8-fluoro-6,7-dihydro-5-methyl-1-oxo-1H,5H-benzo[i,j]quinolizine-2-carboxylate Methoxy phe-lys-OMe [Example 32 (P. aeruginosa)]”, the “Difference in Zone diameter Z1 (mm)” value in experiment [1] came to 8 mm; in the experiment on E. coli 2051, 11 mm.

As for `C[C@@H]1CN(c2c(F)cc3c(=O)c(C(=O)O)cn4c3c2CC[C@@H]4C)CC[C@H]1O` (relative stereo) [Example 35 (P. aeruginosa), S-(−)-9-Fluoro-6,7-dihydro-8-(trans-4′-hydroxy-3′-methylpiperidin-1-yl]-5-methyl-1H,5H-benzo[i,j]quinolizine-2-carboxylic acid], the “Difference in Zone diameter Z1 (mm)” value (in experiment [1]; in the experiment on E. coli 2051) was 8 mm throughout.

Take “10-Fluoro-11-[(1∝,5∝,6∝)-6-amino-3-azabicyclo[3.1.01]hex-3yl]-3,4-dihydro-4(S)-methyl-8-oxo-2H,8H-pyrido[1,2,3-ef]-1,5-benzoxazipin-7-carboxylic acid. HCl [Example 37 (P. aeruginosa)]”: the “Difference in Zone diameter Z1 (mm)” value in experiment [1] turned out to be 2 mm; with E. coli 2051, 5 mm.

Take `C[C@H]1CCc2c(N3CCC(O)CC3)c(F)cc3c(=O)c(C(=O)O)cn1c23` [Example 21 (P. aeruginosa), S-(−)-9-Fluoro-6,7-dihydro-8-(4′-hydroxypiperidin-1-yl)-5-methyl-1-oxo-1H,5H-benzo[i,j]quinolizine-2-carboxylic acid 0.2 hydrate]: the figures for the “Difference in Zone diameter Z1 (mm)” value (in experiment [1]; in the experiment with E. coli 2051) were 5 mm and 9 mm, respectively.

In the case of `COc1c(N2CCC(N)C(C)C2)c(F)cc2c(=O)c(C(=O)O)cn(C3CC3)c12` (centres unmarked) [Example 3 (P. aeruginosa), 1-Cyclopropyl-6-fluoro-8-methoxy-1,4-dihydro-7-(4′-amino-3′-methylpiperidin-1-yl)-4-oxo-quinoline-3-carboxylic acid], the “Difference in Zone diameter Z1 (mm)” value in experiment [1] is recorded as 7 mm; in experiment [3], 26 mm; with E. coli 2051, 10 mm.
